Test results taken from US9089521B2, “Method for regulating production of hemoglobin beta chains” (priority 2001, dated 2015).

Experiments:
[1] = system: acute sickle-cell crises; details: stated by The University of Maryland; cited from earlier work
[2] = system: distal promoter of the human β-globin gene (−222/−128); assay: Gel mobility shift assay with distal promoter restriction fragment; format: binding; details: gel retardation assay, FIG. 2a left side
Description: Proteins and antibodies. Ferritins from human liver (enriched in L chains) and from human heart (enriched in H chains), human transferrin (iron saturated) and apotransferrin, polyclonal (rabbit) antiserum to human spleen ferritin and nonimmune rabbit serum were obtained from Sigma Chemical Company.
Restriction fragments and oligonucleotides. The 5′ region of the human β-globin gene (from −610 to +20), previously cloned in pSV2CAT, was cut into three fragments by sequential digestions with Hind III and Rsa I. The three fragments, electroeluted from agarose (Maniatis, T., Fritsch, E. F. & Sambrook, J. (1989) Molecular Cloning: A Laboratory Manual (Cold Spring Harbor Laboratory, Cold Spring Harbor, N.Y.), were 416 bp (−638/−223), 147 bp (−127/+20, containing the proximal promoter region), and 95 bp (the Rsa fragment, −222/−128, containing mainly distal promoter sequences). The three fragments were phenol/chloroform treated, dephosphorylated, and end-labelled with 32-P as described (Maniatis, T., Fritsch, E. F. & Sambrook, J. (1989) Molecular Cloning: A Laboratory Manual (Cold Spring Harbor Laboratory, Cold Spring Harbor, N.Y.); Kurien, B. T., Scofield, R. H., & Broyles, R. H. (1997) Anal Biochem 245, 123-126). […]

[3] = system: partially purified ferritin-protein from K562 nuclei; assay: Competition gel-shift assay with labeled wt −164/−128 oligonucleotide; format: binding, human; details: for excess of unlabeled oligonucleotide needed for significant competition with labeled wt sequence: heated K562 nuclear extract protein, FIG. 4B/4C
Protocol: Preparation of nuclear extracts. Each nuclear extract preparation was made from two liters of K562 cells (1×10^6 cells/ml) using the procedure of Dignam, Lebovitz, and Roeder (Dignam, J. D., Lebovitz, R. M. & Roeder, R. G. (1983) Nucleic Acids Res 11, 1475-89). Protein content of the extracts ranged from 3 to 6 mg/ml. Extracts enriched 80-90% in ferritin-like protein(s) were prepared by treating the crude extracts with proteinase K and/or heat at 75° C. (Atkinson, B. G., Dean, R. L., Tomlinson, J. & Blaker, T. W. (1989) Biochem Cell Biol 67, 52-7).
Gel mobility shift assays. Gel retardation assays (i.e., gel shifts) were used to determine DNA binding of the extract proteins to the Rsa I (95 bp) fragment and synthetic oligonucleotides (Berg et al., (1989) Nucleic Acids Res 17, 8833-52; Fried & Crothers (1981) Nucleic Acids Res 9, 6505-25). Each reaction contained 0.5-2 ng of DNA, 1.0-5.0 ug of extract protein, 1.0-5.0 ug of poly dI:poly dC, 100 mM KCl, and binding buffer (Berg et al., (1989) Nucleic Acids Res 17, 8833-52). Unlabeled competitor oligonucleotides ranged from 15- to 2000-fold molar excess and were included in the reaction mixture with the probe before adding protein. Gels used for retardation assays were 4%, 5%, or 6% acrylamide and the running buffer was low ionic strength TAE (Berg et al., (1989) Nucleic Acids Res 17, 8833-52).
Definition of the binding site with competition gel shifts. To further localize the binding of ferritin, the 37 bp oligonucleotide was mutated in different places, replacing six nucleotides at a time with all A's, all C's, or all G's, with complementary nucleotide replacements in the opposing strand (FIG. 4A). A competition gel shift assay was done with the partially purified protein from heated K562 nuclear extract, in which each of the unlabeled mutant oligos as well as the native sequence was competed against the 32-P-labeled native sequence for binding. All mutants competed for binding as well as the native sequence except those mutated in the −153/−148 region, i.e., mutated in the sequence CAGTGC [SEQ ID NO: 6] (e.g., FIG. 4D). […]

[4] = system: erythroid precursor cells from pediatric sickle cell disease patients; assay: HbS-to-HbF switching in two-phase culture, HPLC of hemoglobins and immuno-HbF fluorescence; format: cell-based, human; details: FIG. 23
[5] = system: endogenous ferritin-H gene expression in NT-2 (NTERA-2) stem cells; assay: Western blot for ferritin-H in NT-2 cells; format: cell-based, human; details: Western blot after 8 days in the presence of compound vs DMSO-control, FIG. 21
Protocol: Cell lines. Human NTERA-2 (NT-2) embryonal carcinoma stem cells (ATCC # CRL-1973) were cultured in DMEM medium with 10% FBS and antibiotics.
Western blots and quantification. Cell lysates (i.e., extracts of human NT-2 cells) were boiled for 3-5 minutes in SDS buffer, layered onto polyacrylamide gels and were run with SDS electrophoresis buffer at 90 volts for 30 minutes. Electrophoresed samples were then placed in 3% BSA buffer and transferred at 80 volts for 2 hours to blotting membranes. A blocking reaction was performed over night with blocking buffer from ECL advance kit (GE Healthcare Bio-Sciences, NJ), followed by incubation for 4 hours in BSA buffer with fluorescent secondary antibody (1:10000) and primary anti ferritin-H (anti-FtH) polyclonal antiserum (1:1000). Ferritin-H detection was achieved using the LI-COR apparatus to visualize the fuorescent bands and Odyssey software to quantify the stained bands of ferritin-H. Isolation and culture of human mononuclear cells and maturation of erythroid precursor cells are diagrammed in FIG. 22. Whole blood was obtained from pediatric sickle cell patients at the time of scheduled transfusion therapy under an approved IRB protocol. […]

Compound: NC(=O)NO [Hydroxyurea]
- patients on whom the agent has no effect [1]: 25%

Compound: transferrin: human transferrin, another iron-binding protein, Sigma
- binding to −222/−128 distal promoter fragment [2]: did not bind

Compound: wt: double-stranded wildtype −164/−128 β-globin promoter oligonucleotide, SEQ ID NO: 1 (AACTCCTAAGCCAGTGCCAGAAGAGCCAAGGACAGGT; complementary strand not cited, chemistry not fully specified; listed as Homo sapiens)
- excess of unlabeled oligonucleotide needed for significant competition with labeled wt sequence [3]: 50 fold excess

Compound: CC1=CC(=O)CC(C)(C)C1(O)/C=C/C(C)=C\C(=O)O (centres unmarked) [abscissic acid]
- HbS-to-HbF hemoglobin switch ([4]; administered day 1 of phase II culture with rhEpo, HPLC, observed 23 days to 4 weeks after administration): total switch
- cellular distribution of HbF production ([4]; immuno-HbF fluorescence): pancellular
- ferritin-H expression in NT-2 cells [5]: activated ferritin-H expression

Compound: mutant no. 4: double-stranded −164/−128 oligonucleotide mutated in the −153/−148 CAGTGC sequence, SEQ ID NO: 5 (AACTCCTAAGCAAAAAACAGAAGAGCCAAGGACAGGT; double-stranded competitor oligonucleotide, further chemistry not given here)
- concentration required for 50% inhibition of binding of labeled probe, relative to wt sequence ([3]; FIG. 4D): 20 fold
- excess of unlabeled oligonucleotide needed for significant competition with labeled wt sequence [3]: 1,000 fold excess
